Tests used:
Format in all cases: cell-based
[1] = tested on: Respiratory syncytial virus recombinant with luciferase (RSV-Luc5) in HEp-2 cells; experiment: HEp-2 RSV-Luc5 384-well assay (EC50 RSVFLUC Hep2-384 v2, Example V); settings: human respiratory syncytial virus, HEp-2, 72 h, read-out: RSV Hep-2 FLuc EC50 (v2) (nM) (per Ex. V)
Outline: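 HEp-2 cells (4,000/well) infected with RSV-Luc5 at MOI 0.5 in DMEM/10% FBS with compound, 10-point 1:3 dilutions, 3 days at 37 °C. Replication read by One-Glo luminescence, normalized to remdesivir (0%) and DMSO (100%). EC50 from non-linear regression as concentration giving 50% reduction.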

[2] = tested on: Human Rhinovirus 14 (HRV14) in H1-HeLa cells; experiment: H1-HeLa HRV-CTG EC50, HRV14 (Example Z); settings: Rhinovirus B, HRV14, 96 h, MOI 1.0, 4 days, Celltiter-Glo, read-out: HRV14 HELA EC50 (nM) (per Ex. Z)
Outline: (§1)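 H1-HeLa cells (5,000/well) in DMEM with 2% FBS were infected with HRV1B, HRV14 or HRV16 at MOI 0.5, 1.0 and 0.25, respectively, with 10-point 1:3 compound dilutions. After 4 days at 37 °C, viability was read by CellTiter-Glo luminescence. EC50 was the concentration reducing viral replication by 50%, normalized to rupintrivir and DMSO controls.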

[3] = tested on: Human Rhinovirus 16 (HRV16) in H1-HeLa cells; experiment: H1-HeLa HRV-CTG EC50, HRV16 (Example Z); settings: Rhinovirus A, HRV16, 96 h, MOI 0.25, 4 days, Celltiter-Glo, read-out: HRV 16 HELA EC50 (nM) (per Ex. Z)
Outline: as §1

[4] = tested on: Human Rhinovirus 1B (HRV1B) in H1-HeLa cells; experiment: H1-HeLa HRV-CTG EC50, HRV1B (Example Z); settings: Rhinovirus A, 96 h, MOI 0.5, 4 days, Celltiter-Glo, read-out: HRV 1B HELA EC50 (nM) (per Ex. Z)
Outline: as §1

[5] = RSV NHBE CC50 384 V2 (per Ex. U); settings: human
[6] = RSV HEP2-CC50-384-V2 (per Ex. V); settings: human

| Compound | EC50 [1] [nM] | EC50 [2] [nM] | EC50 [3] [nM] | EC50 [4] [nM] | CC50 at 3 days [5] [nM] | CC50 at 3 days [6] [nM] |
| --- | --- | --- | --- | --- | --- | --- |
| CCCCCCCCCCCCCCOC[C@H](COP(=O)(O)OC[C@@]1(C#N)O[C@@H](c2ccc3c(N)ncnn23)[C@H](O)[C@@H]1O)Oc1cc(C#N)ccn1 [Compound 69, ((2R,3S,4R)-5-(4-aminopyrrolo[2,1-f][1,2,4]triazin-7-yl)-2-cyano-3,4-dihydroxytetrahydrofuran-2-yl)methyl ((R)-2-((4-cyanopyridin-2-yl)oxy)-3-(tetradecyloxy)propyl) hydrogen phosphate] | 674 | 106 | 109 | 116 | 3290 | > 50000 |
| CCCCCCCCCCCCCCCCCCCC[C@@H](COP(=O)(O)OC[C@@]1(C#N)O[C@@H](c2ccc3c(N)ncnn23)[C@H](O)[C@@H]1O)OCc1cc(F)cc(C#N)c1 [Compound 70, ((2R,3S,4R)-5-(4-aminopyrrolo[2,1-f][1,2,4]triazin-7-yl)-2-cyano-3,4-dihydroxytetrahydrofuran-2-yl)methyl ((S)-2-((3-cyano-5-fluorobenzyl)oxy)docosyl) hydrogen phosphate] | 1770 | 162 | 114 | 84 | 3950 | 43500 |
| CCCCCCCCCCCCCCCCCCOC[C@@H](COP(=O)(O)OC[C@@]1(C#N)O[C@@H](c2ccc3c(N)ncnn23)[C@H](O)[C@@H]1O)Oc1ccc(C#N)nc1 [Compound 72, ((2R,3S,4R,5S)-5-(4-aminopyrrolo[2,1-f][1,2,4]triazin-7-yl)-2-cyano-3,4-dihydroxytetrahydrofuran-2-yl)methyl ((S)-2-((6-cyanopyridin-3-yl)oxy)-3-(octadecyloxy)propyl) hydrogen phosphate] | 45 | 3 | 3 | 3 | 1610 | > 49900 |
| CCCCCCCCCCCCCCCCCCOC[C@H](COP(=O)(O)OC[C@@]1(C#N)O[C@@H](c2ccc3c(N)ncnn23)[C@H](O)[C@@H]1O)OCc1ccc(C#N)cc1OC [Compound 73, ((2R,3S,4R)-5-(4-aminopyrrolo[2,1-f][1,2,4]triazin-7-yl)-2-cyano-3,4-dihydroxytetrahydrofuran-2-yl)methyl ((R)-2-((4-cyano-2-methoxybenzyl)oxy)-3-(octadecyloxy)propyl) hydrogen phosphate] | 104 | 26 | 29 | 12 | 3820 | > 47000 |
| CCCCCCCCCCCCCCCCC[C@@H](COP(=O)(O)OC[C@@]1(C#N)O[C@@H](c2ccc3c(N)ncnn23)[C@H](O)[C@@H]1O)OCc1cc(F)cc(C#N)c1 [Compound 74, ((2R,3S,4R)-5-(4-aminopyrrolo[2,1-f][1,2,4]triazin-7-yl)-2-cyano-3,4-dihydroxytetrahydrofuran-2-yl)methyl ((S)-2-((3-cyano-5-fluorobenzyl)oxy)nonadecyl) hydrogen phosphate] | 782 | 67 | 49 | 24 | 1540 | 28000 |
| CCCCCCCCCCCCCCOC[C@H](COP(=O)(O)OC[C@@]1(C#N)O[C@@H](c2ccc3c(N)ncnn23)[C@H](O)[C@@H]1O)OCc1ccc(C#N)cc1F [Compound 75, ((2R,3S,4R,5S)-5-(4-aminopyrrolo[2,1-f][1,2,4]triazin-7-yl)-2-cyano-3,4-dihydroxytetrahydrofuran-2-yl)methyl ((R)-2-((4-cyano-2-fluorobenzyl)oxy)-3-(tetradecyloxy)propyl) hydrogen phosphate] | 446 | 37 | 37 | 23 | 4620 | > 48500 |
| CCCCCCCCCCCCCCCC[C@H](COP(=O)(O)OC[C@@]1(C#N)O[C@@H](c2ccc3c(N)ncnn23)[C@H](O)[C@@H]1O)OCc1cc(F)cc(C#N)c1 [Compound 78, ((2R,3S,4R,5S)-5-(4-aminopyrrolo[2,1-f][1,2,4]triazin-7-yl)-2-cyano-3,4-dihydroxytetrahydrofuran-2-yl)methyl ((R)-2-((3-cyano-5-fluorobenzyl)oxy)octadecyl) hydrogen phosphate] | 439 | 38 | 66 | 24 | 1200 | 34600 |
| CCCCCCCCCCCCCCCC[C@@H](COP(=O)(O)OC[C@@]1(C#N)O[C@@H](c2ccc3c(N)ncnn23)[C@H](O)[C@@H]1O)OCc1cc(F)cc(C#N)c1 [Compound 79, ((2R,3S,4R,5S)-5-(4-aminopyrrolo[2,1-f][1,2,4]triazin-7-yl)-2-cyano-3,4-dihydroxytetrahydrofuran-2-yl)methyl ((S)-2-((3-cyano-5-fluorobenzyl)oxy)octadecyl) hydrogen phosphate] | 1090 | 38 | 70 | 25 | 2100 | 38100 |
| CCCCCCCCCCCCCCC[C@H](COP(=O)(O)OC[C@@]1(C#N)O[C@@H](c2ccc3c(N)ncnn23)[C@H](O)[C@@H]1O)OCc1cc(F)cc(C#N)c1 [Compound 80, ((2R,3S,4R,5S)-5-(4-aminopyrrolo[2,1-f][1,2,4]triazin-7-yl)-2-cyano-3,4-dihydroxytetrahydrofuran-2-yl)methyl ((R)-2-((3-cyano-5-fluorobenzyl)oxy)heptadecyl) hydrogen phosphate] | 1050 | 88 | 111 | 49 | 2170 | > 50000 |

— patent US20250034182A1, “PHOSPHOLIPID COMPOUNDS AND METHODS OF MAKING AND USING THE SAME” (priority 2021, published 2025)
